Where two headings read alike, the source gives them in different places.
What was measured:
[1] = system: recombinant canine GSTT5 (reference); experiment: spectrophotometric glutathione conjugation assay, Michaelis-Menten fit; type: biochemical, Canis lupus familiaris; conditions: co-substrate glutathione (5 mM); pH and temperature not stated
[2] = system: recombinant canine GSTT5 (reference); conditions: co-substrate glutathione (5 mM); pH and temperature not stated

Q: `O=[N+]([O-])c1ccc(Cl)c(Cl)c1` [1,2-dichloro-4-nitrobenzene, 1,2‐dichloro‐4‐nitrobenzene] was tested. Which Km [1] did it give?
A: Its Km is 168 ± 27 µM.

Q: What about the Km [2] of the same compound?
A: Its Km is 164 ± 22 µM.
